Assay results taken from ChEMBL document CHEMBL3885861, “Open TG-GATES”.

Organism: Rattus norvegicus
Test: Open TG-GATES - Regimen: Single
Assay type: toxicity, organism-based, Sprague-Dawley
Set-up: regimen Single, gender Male, age 6 weeks
Settings: in vivo, po, 15 mg/kg, route gavage, dose level Middle; for APTT / Bas / Eos / Fbg / Hb / Ht / Lym / MCH / MCHC / MCV / Mono / Neu / PT / Plat / RBC / Ret / WBC: tissue Blood; for LIVER: tissue Liver; for A/G / ALP / ALT / AST / BUN / CRE / Ca / Cl / DBIL / GLC / IP / K / LDH / Na / PL / RALB / TBIL / TC / TG / TP / gamma-GTP: tissue Plasma

SMILES: C=C(C)[C@H]1Cc2c(ccc3c2O[C@@H]2COc4cc(OC)c(OC)cc4[C@@H]2C3=O)O1 [ROTENONE]
- TERMINAL_BW (3 h): 196.9 g
- APTT (3 h): 16.9 s
- Bas (3 h): 0%
- Eos (3 h): 0.8%
- Fbg (3 h): 214 mg/dL
- Hb (3 h): 13.1 g/dL
- Ht (3 h): 40.1%
- Lym (3 h): 63.8%
- MCH (3 h): 20.7 pg
- MCHC (3 h): 32.6%
- MCV (3 h): 63.4 fL
- Mono (3 h): 13.6%
- Neu (3 h): 22%
- PT (3 h): 12.4 s
- Plat (3 h): 122.6 x10_4/uL
- RBC (3 h): 634 x10_4/ul
- Ret (3 h): 8.9%
- WBC (3 h): 89.2 x10_2/uL
- LIVER (3 h): 8.7 g
- A/G (3 h): 2.4
- ALP (3 h): 1502.2 IU/L
- ALT (3 h): 37.8 IU/L
- AST (3 h): 71.4 IU/L
- BUN (3 h): 14.2 mg/dL
- CRE (3 h): 0.4 mg/dL
- Ca (3 h): 10.9 mg/dL
- Cl (3 h): 104.2 meq/L
- DBIL (3 h): 0.01 mg/dL
- GLC (3 h): 191.6 mg/dL
- IP (3 h): 8.8 mg/dL
- K (3 h): 4 meq/L
- LDH (3 h): 106.6 IU/L
- Na (3 h): 141 meq/L
- PL (3 h): 126.8 mg/dL
- RALB (3 h): 3.9 g/dL
- TBIL (3 h): 0.038 mg/dL
- TC (3 h): 82 mg/dL
- TG (3 h): 37.4 mg/dL
- TP (3 h): 5.5 g/dL
- gamma-GTP (3 h): 0.8 IU/L
- TERMINAL_BW (6 h): 198.2 g
- APTT (6 h): 16.4 s
- Bas (6 h): 0%
- Eos (6 h): 0.8%
- Fbg (6 h): 209.6 mg/dL
- Hb (6 h): 13.2 g/dL
- Ht (6 h): 40.1%
- Lym (6 h): 75.8%
- MCH (6 h): 21 pg
- MCHC (6 h): 32.9%
- MCV (6 h): 63.9 fL
- Mono (6 h): 5.4%
- Neu (6 h): 18.2%
- PT (6 h): 12.4 s
- Plat (6 h): 127.4 x10_4/uL
- RBC (6 h): 628.4 x10_4/ul
- Ret (6 h): 8.2%
- WBC (6 h): 100.4 x10_2/uL
- LIVER (6 h): 8.7 g
- A/G (6 h): 2.3
- ALP (6 h): 1188.8 IU/L
- ALT (6 h): 33.6 IU/L
- AST (6 h): 68 IU/L
- BUN (6 h): 11.8 mg/dL
- CRE (6 h): 0.4 mg/dL
- Ca (6 h): 11 mg/dL
- Cl (6 h): 103.8 meq/L
- DBIL (6 h): 0.01 mg/dL
- GLC (6 h): 194 mg/dL
- IP (6 h): 9.7 mg/dL
- K (6 h): 4 meq/L
- LDH (6 h): 84.2 IU/L
- Na (6 h): 140.6 meq/L
- PL (6 h): 139.2 mg/dL
- RALB (6 h): 3.7 g/dL
- TBIL (6 h): 0.044 mg/dL
- TC (6 h): 79.8 mg/dL
- TG (6 h): 74.6 mg/dL
- TP (6 h): 5.4 g/dL
- gamma-GTP (6 h): 0.4 IU/L
- TERMINAL_BW (9 h): 198.7 g
- APTT (9 h): 16.4 s
- Bas (9 h): 0%
- Eos (9 h): 0.2%
- Fbg (9 h): 217 mg/dL
- Hb (9 h): 12.7 g/dL
- Ht (9 h): 38.7%
- Lym (9 h): 79.2%
- MCH (9 h): 21 pg
- MCHC (9 h): 32.9%
- MCV (9 h): 63.7 fL
- Mono (9 h): 6.8%
- Neu (9 h): 13.6%
- PT (9 h): 12.7 s
- Plat (9 h): 133.8 x10_4/uL
- RBC (9 h): 607.8 x10_4/ul
- Ret (9 h): 8.8%
- WBC (9 h): 91.4 x10_2/uL
- LIVER (9 h): 8.3 g
- A/G (9 h): 2.4
- ALP (9 h): 1265 IU/L
- ALT (9 h): 29.8 IU/L
- AST (9 h): 65.6 IU/L
- BUN (9 h): 10.4 mg/dL
- CRE (9 h): 0.4 mg/dL
- Ca (9 h): 11.4 mg/dL
- Cl (9 h): 104.2 meq/L
- DBIL (9 h): 0.01 mg/dL
- GLC (9 h): 186 mg/dL
- IP (9 h): 10 mg/dL
- K (9 h): 4.1 meq/L
- LDH (9 h): 103.8 IU/L
- Na (9 h): 139.8 meq/L
- PL (9 h): 132.2 mg/dL
- RALB (9 h): 3.7 g/dL
- TBIL (9 h): 0.044 mg/dL
- TC (9 h): 79.2 mg/dL
- TG (9 h): 40 mg/dL
- TP (9 h): 5.2 g/dL
- gamma-GTP (9 h): 1 IU/L
- TERMINAL_BW (24 h): 213.8 g
- APTT (24 h): 15.5 s
- Bas (24 h): 0%
- Eos (24 h): 0.8%
- Fbg (24 h): 216 mg/dL
- Hb (24 h): 12.8 g/dL
- Ht (24 h): 38.8%
- Lym (24 h): 78.6%
- MCH (24 h): 21.5 pg
- MCHC (24 h): 32.9%
- MCV (24 h): 65.3 fL
- Mono (24 h): 5.6%
- Neu (24 h): 15%
- PT (24 h): 11.8 s
- Plat (24 h): 113 x10_4/uL
- RBC (24 h): 595 x10_4/ul
- Ret (24 h): 8.1%
- WBC (24 h): 100 x10_2/uL
- LIVER (24 h): 11 g
- A/G (24 h): 2.6
- ALP (24 h): 1529.4 IU/L
- ALT (24 h): 36 IU/L
- AST (24 h): 67 IU/L
- BUN (24 h): 17.2 mg/dL
- CRE (24 h): 0.4 mg/dL
- Ca (24 h): 11.6 mg/dL
- Cl (24 h): 104.2 meq/L
- DBIL (24 h): 0.012 mg/dL
- GLC (24 h): 187 mg/dL
- IP (24 h): 7.4 mg/dL
- K (24 h): 4.4 meq/L
- LDH (24 h): 112.8 IU/L
- Na (24 h): 140.4 meq/L
- PL (24 h): 168.4 mg/dL
- RALB (24 h): 4 g/dL
- TBIL (24 h): 0.032 mg/dL
- TC (24 h): 88.8 mg/dL
- TG (24 h): 152 mg/dL
- TP (24 h): 5.6 g/dL
- gamma-GTP (24 h): 0.4 IU/L
